Data on ten compounds can be found in article PMC11900932 (International Journal of Molecular Sciences, 2025).

Structures are written as SMILES. Where a name gives a salt, the structure may show the parent alone. Read-outs that look alike come from different tables or passages of the source.

Data set [1] has as its target T1, SARS-CoV-2 3CL^pro (Severe acute respiratory syndrome coronavirus 2, UniProt P0DTD1). The conditions noted are these: cited from earlier work.
Another data set deals with T2, CTRC (Homo sapiens, UniProt Q99895).
T2 construct: purchased Novoprotein, Suzhou, China
T2 sequence (Q99895 30-268): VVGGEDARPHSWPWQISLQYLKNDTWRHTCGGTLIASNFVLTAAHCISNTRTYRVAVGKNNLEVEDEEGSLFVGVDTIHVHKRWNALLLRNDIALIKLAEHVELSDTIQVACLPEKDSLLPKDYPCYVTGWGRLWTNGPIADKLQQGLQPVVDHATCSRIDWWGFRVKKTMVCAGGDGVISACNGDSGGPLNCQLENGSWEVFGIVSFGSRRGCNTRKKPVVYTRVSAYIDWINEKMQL
As to the kind of experiment: Host protease selectivity test, Chymotrypsin. The format is biochemical. The conditions noted are these: 5 and 50 μM. As to the method: Chymotrypsin (CTRC) (Novoprotein, Suzhou, China) at a final concentration of 5 μg/mL was incubated in a buffer solution containing 50 mM Tris, 10 mM CaCl2, and 150 mM NaCl at pH 7.5 for a period of 30 min. Subsequently, trypsin was added to the mixture at the same concentration (5 μg/mL) and incubated for an additional 60 min at 37 °C. Following this, the reaction was initiated by adding 100 µM of the Succinyl-Ala-Ala-Pro-Phe-p-nitroanilide substrate (NJPeptide, Nanjing, China), and the mixture was incubated for another 60 min at 37 °C. Finally, the activity of CTRC was quantified by measuring the absorbance at 405 nm using a Cytation 5 plate reader (BioTek, Winooski, VT, USA).

Another data set addresses T3, CTSL (Homo sapiens, UniProt P07711).
T3 construct: purchased SinoBiological, Beijing, China
As to the kind of experiment: Host protease selectivity test, Cathepsin L. As to conditions: 5 and 50 μM. The format is biochemical. On the procedure:
Cathepsin L (CTSL) (SinoBiological, Beijing, China) at a final concentration of 100 nM in buffer (20 mM sodium acetate, 1 mM EDTA, and 5 mM DTT, pH 5.5) was activated by incubation at 30 °C. Then, the working solution of CTSL was diluted into 300 pM with the reaction buffer and incubated for 30 min. The addition of 5 μM FRET substrate Z-Phe-Arg-AMC (NJPeptide, Nanjing, China) initiated the reaction. The fluorescence signals at 360 nm (excitation)/460 nm (emission) were measured for 20 min with the Cytation 5 plate reader (BioTek, Winooski, VT, USA).

For a further data set, the target named is MERS-CoV 3CL^pro (Middle East respiratory syndrome-related coronavirus, UniProt K9N7C7). As to the kind of experiment: biochemical.
For a further data set, the system named is SARS-CoV-2-S pseudovirus. As to the kind of experiment: microbe, parasite or virus in culture. The format is cell-based. As to conditions: for IC50: Pseudovirus, read-out: IC50, pseudovirus activity inhibition.
Another data set has as its target T4, CTSB (Homo sapiens, UniProt P07858).
T4 construct: purchased SinoBiological, Beijing, China
As to the kind of experiment: Host protease selectivity test, Cathepsin B. The format is biochemical. As to conditions: 5 and 50 μM. On the procedure: Target selectivity tests toward host proteases were conducted based on our previous method. Cathepsin B (CTSB) (SinoBiological, Beijing, China) at a final concentration of 100 nM was prepared in buffer with 20 mM sodium acetate, 1 mM EDTA, and 2 mM DTT (pH 5.5) and incubated for 30 min at 30 °C. Next, the working solution of CTSB was diluted into 500 pM with the reaction buffer (100 mM MES pH 6.0, 1 mM EDTA, 2 mM DTT, and 0.01% Tween-20) and kept for 30 min. Then, the FRET substrate Z-Phe-Arg-AMC (NJPeptide, Nanjing, China) at 5 μM was added to activate the enzymatic reaction. The fluorescence signals were measured using a Cytation 5 plate reader (BioTek, Winooski, VT, USA) at 360 nm (excitation)/460 nm (emission) for 20 min.

A short description of another data set: in vitro. As to conditions: human.
Another data set has as its target SARS-CoV 3CL^pro (Severe acute respiratory syndrome coronavirus, UniProt P0C6X7). As to the kind of experiment: biochemical.
Data set [2] is described as follows: Cell viability assay (CCK-8) on Vero-E6 cells. As to conditions: African green monkey.
Another data set addresses T5, TMPRSS2 (Homo sapiens, UniProt O15393).
T5 construct: purchased MedChemExpress, Shanghai, China
As to the kind of experiment: Host protease selectivity test, TMPRSS2. The format is biochemical. On the procedure:
TMPRSS2 protease at the concentration of 5 nM (MedChemExpress, Shanghai, China) was incubated with compounds in the reaction buffer (50 mM Tris-HCl, 1 mM CaCl2, 0.1% Tween 20, pH 8.0) for 1 h at 37 °C. Then, 45 μM substrate Boc-GIn-Ala-Arg-AMC (NJPeptide, Nanjing, China) was added to initiate the reaction. Fluorescence intensity was detected using a Cytation 5 plate reader at 380 nm (excitation)/460 nm (emission) for 1.5 h.

Data set [3] has as its target T1, SARS-CoV-2 3CL^pro. As to the kind of experiment: biochemical.
Details of data set [4]: method as in doi:10.1177/009286150103500134. The conditions noted are these: cited from earlier work.
For data set [5], the system named is SARS-CoV-2-S pseudovirus Delta. As to the kind of experiment: microbe, parasite or virus in culture. The format is cell-based.
In data set [6] the test system is SARS-CoV-2-S pseudovirus Omicron. As to the kind of experiment: microbe, parasite or virus in culture. The format is cell-based.
For a further data set, the target named is SARS-CoV-2 S-RBD (Severe acute respiratory syndrome coronavirus 2, UniProt P0DTC2). As to the kind of experiment: biochemical. The format is binding.
The target of a further data set is human ACE2 (Homo sapiens, UniProt Q9BYF1). As to the kind of experiment: SPR binding to immobilized ACE2. As to the method:
ACE2 and S-RBD were separately immobilized onto a CM5 chip via amine coupling in sodium acetate buffer (pH 4.0 for ACE2 and pH 5.5 for S-RBD) at a flow rate of 10 μL/min. After the chip surface was activated with NHS and EDC, ACE2 and S-RBD were injected at concentrations of 20 μg/mL and 30 μg/mL, respectively, and the surface was blocked using ethanolamine. […] All measurements were performed in PBS buffer (0.05% Tween-20, 5% DMSO, pH 7.4) at 25 °C, with corrections applied to address refractive index shifts and data drift. The binding affinities were quantified by fitting the interaction data to a Langmuir 1:1 binding model using Biacore Evaluation software.
For orientation: SPR reads the build-up and loss of mass on a sensor chip optically.

Data set [7] has as its target T1, SARS-CoV-2 3CL^pro.
The target of data set [8] is SARS-CoV-2 S-RBD/ACE2 interaction (Severe acute respiratory syndrome coronavirus 2, UniProt P0DTC2). The format is cell-based.
Data set [9] deals with SARS-CoV-2-S pseudovirus Gamma. As to the kind of experiment: microbe, parasite or virus in culture. Format: cell-based.
Data set [10] deals with T1, SARS-CoV-2 3CL^pro. Format: biochemical.
The target in data set [11] is T1, SARS-CoV-2 3CL^pro. As to conditions: cited from earlier work. This is another data set of the same source.

T3 sequence (P07711 114-333): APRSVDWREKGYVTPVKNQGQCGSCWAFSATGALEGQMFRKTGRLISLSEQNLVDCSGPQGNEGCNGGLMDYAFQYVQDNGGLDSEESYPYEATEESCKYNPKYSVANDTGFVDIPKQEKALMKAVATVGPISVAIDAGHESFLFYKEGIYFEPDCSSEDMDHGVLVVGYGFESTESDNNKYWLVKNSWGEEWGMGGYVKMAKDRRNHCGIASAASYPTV
Chain of MERS-CoV 3CL^pro (K9N7C7 3248-3553 limits assumed): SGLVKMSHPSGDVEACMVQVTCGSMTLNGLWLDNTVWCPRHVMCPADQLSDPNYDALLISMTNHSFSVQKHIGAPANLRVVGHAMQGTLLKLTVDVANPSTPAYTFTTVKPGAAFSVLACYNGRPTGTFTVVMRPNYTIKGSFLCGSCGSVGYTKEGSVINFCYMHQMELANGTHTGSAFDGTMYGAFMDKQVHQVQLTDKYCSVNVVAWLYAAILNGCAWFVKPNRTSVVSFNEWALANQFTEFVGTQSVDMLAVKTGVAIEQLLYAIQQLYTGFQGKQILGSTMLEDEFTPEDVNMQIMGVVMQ
Chain of human ACE2 (Q9BYF1 18-805): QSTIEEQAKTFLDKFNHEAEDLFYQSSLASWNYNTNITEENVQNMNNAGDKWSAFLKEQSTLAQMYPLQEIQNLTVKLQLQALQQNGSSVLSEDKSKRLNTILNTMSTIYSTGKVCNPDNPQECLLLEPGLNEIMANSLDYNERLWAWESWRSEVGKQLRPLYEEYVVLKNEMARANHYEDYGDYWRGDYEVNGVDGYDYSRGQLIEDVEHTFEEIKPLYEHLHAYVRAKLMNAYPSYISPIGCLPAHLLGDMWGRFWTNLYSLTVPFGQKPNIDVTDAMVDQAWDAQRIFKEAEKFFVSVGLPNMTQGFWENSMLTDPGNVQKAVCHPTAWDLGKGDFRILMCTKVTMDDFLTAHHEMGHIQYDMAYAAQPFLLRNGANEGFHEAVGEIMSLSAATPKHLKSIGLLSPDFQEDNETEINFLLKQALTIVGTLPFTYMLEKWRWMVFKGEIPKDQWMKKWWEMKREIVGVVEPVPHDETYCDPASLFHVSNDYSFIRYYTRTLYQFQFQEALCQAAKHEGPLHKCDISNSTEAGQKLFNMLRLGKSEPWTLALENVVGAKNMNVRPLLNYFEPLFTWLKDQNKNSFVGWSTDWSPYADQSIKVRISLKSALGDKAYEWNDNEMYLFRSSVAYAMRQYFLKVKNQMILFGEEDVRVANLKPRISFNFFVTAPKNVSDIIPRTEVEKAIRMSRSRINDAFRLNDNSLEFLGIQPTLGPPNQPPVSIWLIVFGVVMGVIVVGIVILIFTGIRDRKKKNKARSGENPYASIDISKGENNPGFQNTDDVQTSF
T5 sequence (O15393 whole entry): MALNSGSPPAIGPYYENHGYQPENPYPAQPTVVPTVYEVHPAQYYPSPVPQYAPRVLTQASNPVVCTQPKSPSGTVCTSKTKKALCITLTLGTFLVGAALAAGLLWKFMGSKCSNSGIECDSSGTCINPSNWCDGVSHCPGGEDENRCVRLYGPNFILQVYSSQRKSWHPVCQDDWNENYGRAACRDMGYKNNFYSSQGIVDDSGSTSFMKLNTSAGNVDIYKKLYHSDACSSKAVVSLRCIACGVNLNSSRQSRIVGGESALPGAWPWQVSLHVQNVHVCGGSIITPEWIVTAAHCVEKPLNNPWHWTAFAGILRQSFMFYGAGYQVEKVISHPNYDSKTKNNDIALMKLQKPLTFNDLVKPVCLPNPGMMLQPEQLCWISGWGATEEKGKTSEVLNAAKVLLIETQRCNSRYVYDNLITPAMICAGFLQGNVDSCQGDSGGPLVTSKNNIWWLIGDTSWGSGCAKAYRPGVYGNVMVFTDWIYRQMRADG

As for `O=c1cc(-c2ccc(O)cc2)oc2cc(O)cc(O)c12` [Apigenin], the IC50 (in general, the midpoint of a concentration-inhibition curve) on SARS-CoV-2 3CL^pro [1] was 84.9 µM.

Regarding `NC(CO)C(=O)NNCc1ccc(O)c(O)c1O` (centres unmarked) [Benserazide hydrochloride], the “inhibitory activity against CTRC” value on CTRC is listed as “did not”. In addition, the “inhibition of CTSL” value against CTSL is reported as “neither compound significantly inhibited”. The results for the IC50 against MERS-CoV 3CL^pro, in the data set on SARS-CoV-2-S pseudovirus and at SARS-CoV 3CL^pro were 8.81 ± 0.34 µM, above 200 µM and 3.04 ± 0.4 µM, respectively. Further, the “inhibition of pseudovirus entry into host cells” value in the data set on SARS-CoV-2-S pseudovirus is “lacked the capacity to inhibit pseudovirus entry into host cells”. For the same compound, the “inhibition of CTSB” value against CTSB is given as “neither compound significantly inhibited”. In the data set “in vitro”, the CC50 is above 200 µM. The CC50 at 24 h in [2] is above 100 µM. In addition, on TMPRSS2, the “inhibition of TMPRSS2” value is listed as “neither compound significantly inhibited”.

Compound `Oc1cc(O)c2c(c1)O[C@H](c1ccc(O)c(O)c1)[C@H](O)C2` [Epicatechin] gave an IC50 at SARS-CoV-2 3CL^pro [3] of 3.3 µM.

As for `O=C(c1cc(O)c(O)c(O)c1)c1ccc(O)c(O)c1O` [Exifone], in [4], the “reason for withdrawal from the market” value is reported as “hepatotoxicity”. For the same compound, the IC50 was determined as 150 ± 5.06 µM in data set [5]; 55.1 ± 6.15 µM in data set [6]; 13.9 ± 0.38 µM against MERS-CoV 3CL^pro; 76.5 ± 32.6 µM in the data set on SARS-CoV-2-S pseudovirus; 3.36 ± 0.08 µM against SARS-CoV 3CL^pro; 159 ± 4.95 µM in [9]. Also, on CTRC, the “inhibitory activity against CTRC” value is given as “significant inhibitory activity”. The Kd (commonly a measure of binding affinity in units of concentration) stood at 0.818 µM at SARS-CoV-2 S-RBD and 1.93 µM at human ACE2. For the same compound, on human ACE2 (SPR, immobilized ACE2), the kd is 0.00045 s⁻¹. On SARS-CoV-2 3CL^pro [3] (read-out: inhibition of SARS-CoV-2 3CLpro activity), the inhibition (as a rule, the drop in the measured response relative to a control, in per cent) at 5 µM is above 50%. Moreover, the “inhibition of CTSL” value on CTSL is “neither compound significantly inhibited”. For the same compound, at CTSB, the “inhibition of CTSB” value is recorded as “neither compound significantly inhibited”. The compound also returned a CC50 in “in vitro” above 200 µM. Besides, the TDI effect entry at SARS-CoV-2 3CL^pro [7] was “did not exhibit a significant TDI effect”. Also, the “S-RBD binding signal on Vero-E6 cells” value in data set [8] is “marked reduction in the S-RBD binding signal”. The CC50 at 24 h in data set [2] (Vero-E6 cells) was above 100 µM. Besides, the type of inhibition entry on SARS-CoV-2 3CL^pro [10] is on record as “non-competitive inhibition with an allosteric mechanism”. The “inhibition of TMPRSS2” value against TMPRSS2 was “neither compound significantly inhibited”.

The compound `O=C(/C=C/c1ccc(O)cc1)c1ccc(O)cc1O` [Isoliquiritigenin] returned an IC50 on SARS-CoV-2 3CL^pro [3] of 73.9 µM.

`COc1cc(-c2oc3cc(O)cc(O)c3c(=O)c2O[C@@H]2O[C@H](CO[C@@H]3O[C@@H](C)[C@H](O)[C@@H](O)[C@H]3O)[C@@H](O)[C@H](O)[C@H]2O)cc(O)c1O` [Laricitrin 3-rutinoside] displayed an IC50 against SARS-CoV-2 3CL^pro [3] of 3.82 µM.

With `COC(=O)[C@@H](Cc1ccc(O)c(O)c1)OC(=O)/C=C/c1ccc(O)c(O)c1` [Methyl rosmarinate], the IC50 at SARS-CoV-2 3CL^pro [11] is 2.5 µM.

In turn, `C[C@@H]1O[C@@H](OC[C@H]2O[C@@H](Oc3c(-c4cc(O)c(O)c(O)c4)oc4cc(O)cc(O)c4c3=O)[C@H](O)[C@@H](O)[C@@H]2O)[C@H](O)[C@H](O)[C@H]1O` [Myricetin-3-O-rutinoside] came in with an IC50 against SARS-CoV-2 3CL^pro [3] of 0.85 µM.

With `C/C=C1/[C@H](O[C@@H]2O[C@H](CO)[C@@H](O)[C@H](O)[C@H]2O)OC=C(C(=O)OC)[C@H]1CC(=O)OCCc1ccc(O)c(O)c1` [Oleuropein], the IC50 at SARS-CoV-2 3CL^pro [11] was 3.5 µM.

`O=c1cc(-c2ccc(O)c(O)c2)oc2cc(O)cc(O)c12` [luteolin]: the IC50 at SARS-CoV-2 3CL^pro [1] is 74.9 µM.
